In PMC11062922 (Nature Chemical Biology, 2023):
Where two headings read alike, the source gives them in different places.

Legend:
MAP2K2 = assay: Kinobeads competition binding: MAP2K2; set-up: species or system human; conditions: target MAP2K2
CDKL5 = molecular target: T1, CDKL5 (Homo sapiens, UniProt O76039); assay: Kinobeads competition binding: CDKL5; conditions: target CDKL5
T1 construct: endogenous in cells
T1 sequence (O76039 1-960): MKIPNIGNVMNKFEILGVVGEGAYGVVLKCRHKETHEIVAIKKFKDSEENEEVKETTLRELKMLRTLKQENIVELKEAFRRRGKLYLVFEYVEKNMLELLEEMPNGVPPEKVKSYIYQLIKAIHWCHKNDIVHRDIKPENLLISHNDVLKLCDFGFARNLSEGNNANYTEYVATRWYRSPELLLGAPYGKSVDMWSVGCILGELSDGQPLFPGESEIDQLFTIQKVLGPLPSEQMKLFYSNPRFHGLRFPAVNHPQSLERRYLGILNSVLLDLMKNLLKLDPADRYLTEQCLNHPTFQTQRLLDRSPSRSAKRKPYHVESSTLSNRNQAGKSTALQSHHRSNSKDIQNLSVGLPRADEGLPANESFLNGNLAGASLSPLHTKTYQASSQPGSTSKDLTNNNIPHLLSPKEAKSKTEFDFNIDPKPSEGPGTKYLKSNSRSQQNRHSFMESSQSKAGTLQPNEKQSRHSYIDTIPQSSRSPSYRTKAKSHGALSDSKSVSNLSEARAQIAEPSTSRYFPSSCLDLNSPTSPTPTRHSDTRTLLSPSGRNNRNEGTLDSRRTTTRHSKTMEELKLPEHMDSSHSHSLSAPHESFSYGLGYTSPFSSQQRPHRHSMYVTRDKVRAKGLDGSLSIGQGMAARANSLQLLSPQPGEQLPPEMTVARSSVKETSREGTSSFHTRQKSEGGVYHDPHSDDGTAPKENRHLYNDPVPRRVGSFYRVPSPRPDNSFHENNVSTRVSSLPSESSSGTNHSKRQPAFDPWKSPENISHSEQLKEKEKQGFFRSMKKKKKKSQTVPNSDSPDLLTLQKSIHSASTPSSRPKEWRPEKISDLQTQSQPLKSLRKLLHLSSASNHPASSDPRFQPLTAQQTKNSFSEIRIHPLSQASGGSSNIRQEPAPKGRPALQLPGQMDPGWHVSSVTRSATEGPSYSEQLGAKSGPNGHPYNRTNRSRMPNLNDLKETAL
Description: Supplement 41589_2023_1459_MOESM4_ESM.xlsx, sheet "CATDS matrix" | column: CDKL5

BMPR1B = molecular target: T2, BMPR1B (Homo sapiens, UniProt O00238); assay: Kinobeads competition binding: BMPR1B; conditions: target BMPR1B;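 note: selectivity score: engagement of this protein divided by summed engagement of all targets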
T2 construct: endogenous in cells

BUB1 = molecular target: T3, BUB1 (Homo sapiens, UniProt O43683); assay: Kinobeads competition binding: BUB1; conditions: target BUB1
T3 construct: endogenous in cells
T3 sequence (O43683 whole entry): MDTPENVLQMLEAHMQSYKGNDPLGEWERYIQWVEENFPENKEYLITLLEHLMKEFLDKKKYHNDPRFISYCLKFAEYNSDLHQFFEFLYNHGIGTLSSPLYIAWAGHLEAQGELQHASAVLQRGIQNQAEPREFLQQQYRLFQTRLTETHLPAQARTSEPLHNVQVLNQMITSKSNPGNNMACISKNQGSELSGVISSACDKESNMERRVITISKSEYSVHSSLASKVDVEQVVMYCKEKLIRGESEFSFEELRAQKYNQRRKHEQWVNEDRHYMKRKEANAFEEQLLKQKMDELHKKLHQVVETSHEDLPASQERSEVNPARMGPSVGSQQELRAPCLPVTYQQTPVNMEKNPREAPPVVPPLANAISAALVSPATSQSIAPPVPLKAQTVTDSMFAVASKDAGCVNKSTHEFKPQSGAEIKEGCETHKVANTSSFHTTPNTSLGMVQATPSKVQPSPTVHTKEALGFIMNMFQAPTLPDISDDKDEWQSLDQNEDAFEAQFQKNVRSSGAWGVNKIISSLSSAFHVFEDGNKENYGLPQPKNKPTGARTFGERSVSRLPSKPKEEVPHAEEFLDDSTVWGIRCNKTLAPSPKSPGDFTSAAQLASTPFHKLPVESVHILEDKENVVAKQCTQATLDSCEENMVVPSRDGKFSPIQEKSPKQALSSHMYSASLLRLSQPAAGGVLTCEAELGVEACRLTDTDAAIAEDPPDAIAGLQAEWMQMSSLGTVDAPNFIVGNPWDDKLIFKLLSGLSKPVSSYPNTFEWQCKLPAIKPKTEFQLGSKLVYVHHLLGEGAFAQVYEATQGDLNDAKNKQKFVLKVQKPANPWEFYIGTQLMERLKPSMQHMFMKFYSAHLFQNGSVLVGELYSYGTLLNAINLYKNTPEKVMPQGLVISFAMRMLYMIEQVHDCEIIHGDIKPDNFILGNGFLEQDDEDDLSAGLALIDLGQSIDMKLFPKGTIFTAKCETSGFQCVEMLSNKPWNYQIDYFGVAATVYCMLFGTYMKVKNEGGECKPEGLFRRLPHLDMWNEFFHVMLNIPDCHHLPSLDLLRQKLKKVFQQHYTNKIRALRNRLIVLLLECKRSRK

AXL = molecular target: T4, AXL (Homo sapiens, UniProt P30530); assay: Kinobeads competition binding: AXL; conditions: target AXL
T4 construct: endogenous in cells
T4 sequence (P30530 26-894): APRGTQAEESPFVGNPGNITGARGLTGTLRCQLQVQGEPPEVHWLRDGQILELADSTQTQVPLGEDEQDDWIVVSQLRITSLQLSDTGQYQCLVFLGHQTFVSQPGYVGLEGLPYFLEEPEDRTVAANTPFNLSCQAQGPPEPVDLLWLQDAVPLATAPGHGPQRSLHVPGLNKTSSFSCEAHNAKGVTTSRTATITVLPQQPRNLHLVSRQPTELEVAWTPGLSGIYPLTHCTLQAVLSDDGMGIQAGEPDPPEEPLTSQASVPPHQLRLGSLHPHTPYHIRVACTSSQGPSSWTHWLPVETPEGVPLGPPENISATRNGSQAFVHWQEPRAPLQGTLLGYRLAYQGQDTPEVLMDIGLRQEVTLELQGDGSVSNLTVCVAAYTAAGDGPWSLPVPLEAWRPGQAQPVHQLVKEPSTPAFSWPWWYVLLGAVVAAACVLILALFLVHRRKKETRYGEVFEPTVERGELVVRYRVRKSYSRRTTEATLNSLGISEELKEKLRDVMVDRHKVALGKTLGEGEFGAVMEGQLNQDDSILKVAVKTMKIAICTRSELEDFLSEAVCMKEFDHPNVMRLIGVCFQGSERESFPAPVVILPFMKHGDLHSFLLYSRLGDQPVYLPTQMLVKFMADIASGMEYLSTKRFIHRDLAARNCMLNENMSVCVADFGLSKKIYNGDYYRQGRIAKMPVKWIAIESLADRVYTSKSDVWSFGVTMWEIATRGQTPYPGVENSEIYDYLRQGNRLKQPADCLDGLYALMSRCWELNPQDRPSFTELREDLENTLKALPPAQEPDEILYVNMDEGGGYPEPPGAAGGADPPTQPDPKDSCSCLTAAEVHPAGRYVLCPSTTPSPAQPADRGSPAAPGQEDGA
Description: Supplement 41589_2023_1459_MOESM4_ESM.xlsx, sheet "CATDS matrix" | column: AXL

FECH = assay: Kinobeads competition binding: FECH; set-up: species or system human; conditions: target FECH
PIK3C3 = molecular target: T5, PIK3C3 (Homo sapiens, UniProt Q8NEB9); assay: Kinobeads competition binding: PIK3C3; conditions: target PIK3C3
T5 construct: a mixture of lysates from five cancer cell lines; endogenous in cells
T5 sequence (Q8NEB9 whole entry): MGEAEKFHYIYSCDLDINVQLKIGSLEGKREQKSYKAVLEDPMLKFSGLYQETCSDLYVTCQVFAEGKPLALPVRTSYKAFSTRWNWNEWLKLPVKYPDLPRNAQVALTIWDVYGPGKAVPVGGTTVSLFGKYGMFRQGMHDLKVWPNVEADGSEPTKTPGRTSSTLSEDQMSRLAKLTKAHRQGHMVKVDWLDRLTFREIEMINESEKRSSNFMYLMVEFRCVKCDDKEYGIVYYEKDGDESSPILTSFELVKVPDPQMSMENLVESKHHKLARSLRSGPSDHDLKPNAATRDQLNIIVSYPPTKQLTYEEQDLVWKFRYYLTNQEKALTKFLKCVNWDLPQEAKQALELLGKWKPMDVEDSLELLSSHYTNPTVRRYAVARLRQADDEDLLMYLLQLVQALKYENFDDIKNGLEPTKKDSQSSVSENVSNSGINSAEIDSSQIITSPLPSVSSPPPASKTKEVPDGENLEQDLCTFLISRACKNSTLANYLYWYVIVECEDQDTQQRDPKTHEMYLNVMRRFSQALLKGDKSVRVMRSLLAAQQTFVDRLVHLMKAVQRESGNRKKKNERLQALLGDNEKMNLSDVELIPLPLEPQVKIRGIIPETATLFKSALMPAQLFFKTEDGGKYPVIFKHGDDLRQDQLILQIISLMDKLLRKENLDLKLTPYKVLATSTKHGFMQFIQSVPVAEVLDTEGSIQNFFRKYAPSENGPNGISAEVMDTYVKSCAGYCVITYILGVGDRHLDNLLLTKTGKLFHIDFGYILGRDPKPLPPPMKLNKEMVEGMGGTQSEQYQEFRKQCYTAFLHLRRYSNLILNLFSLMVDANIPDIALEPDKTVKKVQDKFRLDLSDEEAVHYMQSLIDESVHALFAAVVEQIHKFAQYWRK

MAPK8 = assay: Kinobeads competition binding: MAPK8; set-up: species or system human; conditions: target MAPK8
PIK3CA = molecular target: T6, PIK3CA (Homo sapiens, UniProt P42336); assay: Kinobeads competition binding: PIK3CA; conditions: target PIK3CA;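 note: share of all-target engagement taken by this protein at its own Kdapp concentration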
T6 construct: a mixture of lysates from five cancer cell lines; endogenous in cells
T6 sequence (P42336 whole entry): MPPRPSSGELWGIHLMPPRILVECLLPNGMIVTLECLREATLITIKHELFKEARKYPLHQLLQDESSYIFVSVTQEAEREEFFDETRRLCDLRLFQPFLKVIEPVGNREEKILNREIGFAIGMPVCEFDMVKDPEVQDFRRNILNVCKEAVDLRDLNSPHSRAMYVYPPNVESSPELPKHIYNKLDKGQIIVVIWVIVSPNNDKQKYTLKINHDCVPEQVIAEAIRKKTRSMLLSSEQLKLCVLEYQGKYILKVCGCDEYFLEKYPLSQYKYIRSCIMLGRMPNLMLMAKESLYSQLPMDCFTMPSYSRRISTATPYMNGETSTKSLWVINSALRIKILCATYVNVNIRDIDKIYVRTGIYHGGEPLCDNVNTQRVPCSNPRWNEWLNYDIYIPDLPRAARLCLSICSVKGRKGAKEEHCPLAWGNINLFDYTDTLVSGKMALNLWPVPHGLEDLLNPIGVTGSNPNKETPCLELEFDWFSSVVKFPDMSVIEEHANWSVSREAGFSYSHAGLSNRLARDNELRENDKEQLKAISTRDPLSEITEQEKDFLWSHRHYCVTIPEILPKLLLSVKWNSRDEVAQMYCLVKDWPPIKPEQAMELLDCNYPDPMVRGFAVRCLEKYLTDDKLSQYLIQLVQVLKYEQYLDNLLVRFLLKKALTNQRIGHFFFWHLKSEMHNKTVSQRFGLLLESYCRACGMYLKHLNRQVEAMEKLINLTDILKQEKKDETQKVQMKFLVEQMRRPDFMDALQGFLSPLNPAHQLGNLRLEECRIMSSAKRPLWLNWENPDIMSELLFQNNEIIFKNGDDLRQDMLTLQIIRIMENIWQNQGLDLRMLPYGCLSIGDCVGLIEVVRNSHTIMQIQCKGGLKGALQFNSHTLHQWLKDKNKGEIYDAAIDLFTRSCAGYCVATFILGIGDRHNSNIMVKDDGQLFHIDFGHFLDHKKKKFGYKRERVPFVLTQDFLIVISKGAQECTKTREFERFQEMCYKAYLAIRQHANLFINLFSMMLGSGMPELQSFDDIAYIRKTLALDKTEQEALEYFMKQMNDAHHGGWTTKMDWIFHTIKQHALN
T6 sequence (P27986 whole entry partner): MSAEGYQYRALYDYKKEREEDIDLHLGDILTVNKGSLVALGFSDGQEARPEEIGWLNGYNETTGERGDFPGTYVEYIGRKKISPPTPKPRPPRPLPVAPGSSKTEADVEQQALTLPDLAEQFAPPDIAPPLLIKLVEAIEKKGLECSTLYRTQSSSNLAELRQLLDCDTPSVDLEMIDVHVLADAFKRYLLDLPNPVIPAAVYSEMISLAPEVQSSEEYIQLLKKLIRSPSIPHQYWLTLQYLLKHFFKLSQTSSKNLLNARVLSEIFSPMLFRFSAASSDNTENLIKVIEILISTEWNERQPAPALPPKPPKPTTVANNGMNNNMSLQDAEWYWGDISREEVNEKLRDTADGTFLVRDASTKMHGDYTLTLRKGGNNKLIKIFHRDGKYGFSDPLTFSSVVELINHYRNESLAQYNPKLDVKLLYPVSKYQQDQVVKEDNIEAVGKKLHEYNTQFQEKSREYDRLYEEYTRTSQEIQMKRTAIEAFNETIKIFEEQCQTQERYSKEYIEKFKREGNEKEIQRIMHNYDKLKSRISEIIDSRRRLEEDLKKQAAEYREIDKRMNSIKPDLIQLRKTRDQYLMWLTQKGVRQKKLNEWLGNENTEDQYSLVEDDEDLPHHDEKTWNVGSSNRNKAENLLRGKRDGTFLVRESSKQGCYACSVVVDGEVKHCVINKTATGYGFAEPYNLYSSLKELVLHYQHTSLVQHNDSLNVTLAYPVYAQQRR
Description: Supplement 41589_2023_1459_MOESM4_ESM.xlsx, sheet "CATDS matrix" | column: PIK3CA

MAP4K5 = assay: Kinobeads competition binding: MAP4K5; set-up: species or system human; conditions: target MAP4K5
MTHFD1 = assay: Kinobeads competition binding: MTHFD1; set-up: species or system human; conditions: target MTHFD1;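 note: selectivity score: engagement of this protein divided by summed engagement of all targets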
LIMK1 = assay: Kinobeads competition binding: LIMK1; set-up: species or system human; conditions: target LIMK1
PKN3 = PKN3 (Homo sapiens, UniProt Q6P5Z2); assay: NanoBRET in-cell target engagement in HEK293T cells: PKN3; assay type: cell-based; set-up: full-length PKN3, CSNK2A1 or CSNK2A2 ORF; host or cells: HEK293T;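 note: Full-length PKN3 with C-terminal NanoLuc expressed in HEK293T cells, serial inhibitor dilutions competing against Kinase Tracer K5 at 500 nM, BRET read after 2 h at 37 °C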
Chain of PKN3 (Q6P5Z2 whole entry): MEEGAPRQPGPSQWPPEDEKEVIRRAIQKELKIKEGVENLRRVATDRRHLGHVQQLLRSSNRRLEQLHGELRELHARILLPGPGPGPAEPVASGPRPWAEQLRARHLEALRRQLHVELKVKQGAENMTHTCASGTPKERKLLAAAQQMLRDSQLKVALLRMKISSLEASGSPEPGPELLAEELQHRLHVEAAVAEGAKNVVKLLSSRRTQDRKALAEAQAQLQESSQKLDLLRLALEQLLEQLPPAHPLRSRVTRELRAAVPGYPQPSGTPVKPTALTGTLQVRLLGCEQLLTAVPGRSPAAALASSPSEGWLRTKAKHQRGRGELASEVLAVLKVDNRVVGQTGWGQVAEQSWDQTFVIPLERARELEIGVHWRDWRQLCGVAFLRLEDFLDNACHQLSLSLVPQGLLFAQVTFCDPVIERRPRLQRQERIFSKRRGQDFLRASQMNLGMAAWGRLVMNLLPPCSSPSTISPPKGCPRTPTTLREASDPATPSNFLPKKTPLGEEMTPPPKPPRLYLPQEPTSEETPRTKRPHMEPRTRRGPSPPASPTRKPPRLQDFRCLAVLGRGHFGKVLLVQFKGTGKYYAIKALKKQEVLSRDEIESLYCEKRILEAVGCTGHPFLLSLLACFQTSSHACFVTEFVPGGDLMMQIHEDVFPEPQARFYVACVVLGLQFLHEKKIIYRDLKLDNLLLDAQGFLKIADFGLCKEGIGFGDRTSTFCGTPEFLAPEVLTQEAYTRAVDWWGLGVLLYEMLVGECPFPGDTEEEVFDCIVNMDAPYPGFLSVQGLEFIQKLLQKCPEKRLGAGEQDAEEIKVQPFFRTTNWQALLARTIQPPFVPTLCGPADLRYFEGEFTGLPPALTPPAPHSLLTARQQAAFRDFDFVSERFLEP

[1] = HEK293T cells, in-cell target engagement, read-out: IC50 PKN3 NanoBRET
[2] = average of replicates, read-out: Average of IC50 values NanoBRET PKN3
[3] = biological replicate number 1, read-out: Rep 1 IC50 NanoBRET PKN3
[4] = biological replicate number 2, read-out: Rep 2 IC50 NanoBRET PKN3
[5] = biological replicate number 3, read-out: Rep 3 IC50 NanoBRET PKN3
[6] = biological replicate number 4, read-out: Rep 4 IC50 NanoBRET PKN3

| SMILES | CATDS (MAP2K2) | CATDS (CDKL5) | CATDS (BMPR1B) | CATDS (BUB1) | CATDS (AXL) | CATDS (FECH) | CATDS (PIK3C3) | CATDS (MAPK8) | CATDS (PIK3CA) | CATDS (MAP4K5) | CATDS (MTHFD1) | CATDS (LIMK1) | IC50 (PKN3; [1]) [nM] | IC50 (PKN3; [2]) [nM] | IC50 (PKN3; [3]) [nM] | IC50 (PKN3; [4]) [nM] | IC50 (PKN3; [5]) [nM] | IC50 (PKN3; [6]) [nM] |
| --- | --- | --- | --- | --- | --- | --- | --- | --- | --- | --- | --- | --- | --- | --- | --- | --- | --- | --- |
| CCN1CCN(Cc2ccc(Nc3ncc(F)c(-c4cc(F)c5nc(C)n(C(C)C)c5c4)n3)nc2)CC1 [Abemaciclib] | 0 | 0.6907 | 0 | 0 | 0 | 0 | 0 | 0 | 0 | 0 | 0 | 0 |  |  |  |  |  |  |
| CCn1c(-c2nonc2N)nc2c(C#CC(C)(C)O)nc(OCCN)cc21 [GSK902056A] |  |  |  |  |  |  |  |  |  |  |  |  | 79 | 99.2 | 234 | 56.5 | 27 | 79.2 |
| CN(C)C/C=C/C(=O)Nc1cc2c(Nc3ccc(F)c(Cl)c3)ncnc2cc1O[C@H]1CCOC1 [Afatinib] |  | 0 |  |  | 0 | 0 |  |  | 0 |  | 0 |  |  |  |  |  |  |  |
| CCn1c(-c2nonc2N)nc2c(C#CC(C)(C)O)nc(OCCNC)cc21 [GSK949675A] |  |  |  |  |  |  |  |  |  |  |  |  | 136 | 669 | 1950 | 441 | 149 |  |
| NCc1ccc(-c2nc(-c3ccncc3)c(-c3ccc(Cl)c(O)c3)[nH]2)cc1 [SB-476429-A] |  |  |  |  |  |  |  |  |  |  |  |  | 85 | 243 | 589 | 211 | 86.7 | 85.4 |
| CCc1cc2c(cc1N1CCC(N3CCOCC3)CC1)C(C)(C)c1[nH]c3cc(C#N)ccc3c1C2=O [Alectinib] | 0 | 0 | 0 | 0 | 0 | 0 | 0 | 0 | 0 | 0 | 0 | 0 |  |  |  |  |  |  |
| Nc1ncnc2[nH]c(-c3ccccc3)nc12 [AH5015_KCGS] | 0 | 0 | 0 | 0 | 0 | 0 | 0 | 0 | 0 | 0 | 0 | 0 |  |  |  |  |  |  |
| N#CC1(c2ccc(NC(=O)c3cccnc3NCc3ccncc3)cc2)CCCC1 [Apatinib] | 0 | 0 | 0 | 0 | 0 | 0 | 0 | 0 | 0 | 0 | 0 | 0 |  |  |  |  |  |  |
